Among the test systems are RXF 393; SK-OV-3; LOX IMVI; HOP-92; RPMI-8226; OVCAR-4; 786-0; OVCAR-8; COLO 205; SNB-19; UACC-62; CCRF-CEM; TK-10; A549; SF-295; OVCAR-3; HL-60; SF-268.
Test in all cases: DTP human tumour cell line panel, 48 h

Molecules are shown by their SMILES.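 The compound was tested at five concentrations on cells cultured in 96-well plates, with a 48-hour exposure period. GI50: concentration for 50% inhibition of growth.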 Activity calls are given as the source filed them. No stated cut-off is given here; in the data, active = GI50 up to about 1.1 µM and inactive = higher. Where a SMILES comes first, the peptide text is derived from it. The star is where a group is joined. Cbz = O=C(OCc1ccccc1)*; NHNH2 = NN*

As a reminder, the GI50 is the concentration at which growth is held to half of that of the control.

Consider `COc1ccc2c(=O)c(C)c(-c3ccccc3)oc2c1CN(C)C` [DIMEFLINE], for which the GI50 in the assay on RXF 393, in the assay with SK-OV-3, with LOX IMVI, with HOP-92, in the assay with RPMI-8226 and in the assay on OVCAR-4 was > 100 µM (inactive) throughout. The GI50 in the assay on 786-0, in the assay on OVCAR-8, in the assay on COLO 205, in the assay with SNB-19, with UACC-62 and in the assay on CCRF-CEM was > 100 µM (inactive) each time. Besides, the GI50 with TK-10, with A549 and in the assay with SF-295 was > 100 µM (inactive) in each case.
With `[N-]=[N+]=NC(c1cn(C2CC(O)C(CO)O2)c(=O)[nH]c1=O)C(Br)I` (stereo not drawn), the GI50 in the assay with RXF 393, in the assay on OVCAR-3, in the assay on SK-OV-3, in the assay on LOX IMVI, with HL-60 and in the assay on HOP-92 was > 100 µM (inactive) throughout. For the same compound, the GI50 in the assay with RPMI-8226, with 786-0, in the assay on OVCAR-8, in the assay with COLO 205, in the assay with SNB-19 and with UACC-62 was > 100 µM (inactive) each time. The GI50 with CCRF-CEM, in the assay on TK-10, in the assay on A549 and in the assay with SF-295 was > 100 µM (inactive) in each case.
Consider `CCOC(=O)N1CCc2cc(OC)c(OC)cc2/C1=C\c1ccc(OC)c(OC)c1`, for which the GI50 with RXF 393 is 17.1 µM (inactive); in the assay on OVCAR-3, 26 µM (inactive); in the assay with SK-OV-3 it was 54 µM (inactive); in the assay on LOX IMVI, 18.8 µM (inactive); in the assay with HL-60, 19.5 µM (inactive); in the assay on HOP-92, 15.8 µM (inactive). For the same compound, the GI50 is 37.8 µM (inactive) with SF-268; 24.4 µM (inactive) with RPMI-8226; 19.9 µM (inactive) with 786-0; 30.1 µM (inactive) with OVCAR-8; 21.6 µM (inactive) with COLO 205; 39.2 µM (inactive) in the assay on SNB-19. The GI50 in the assay on UACC-62 is 22.9 µM (inactive); in the assay with CCRF-CEM it was 20.7 µM (inactive); in the assay with TK-10, 25.2 µM (inactive); with A549 it was 26.8 µM (inactive); in the assay on SF-295, 22.9 µM (inactive).
With `O=C(c1ccccc1)c1c(CC(O)c2ccccn2)n(C(=O)c2ccccc2)c2ccccc12` (stereo not drawn), the GI50 in the assay on OVCAR-3 was 17.5 µM (inactive); in the assay on HL-60, > 10 µM (inactive); in the assay with HOP-92 it was 18.9 µM (inactive); with SF-268, 28.3 µM (inactive); in the assay with RPMI-8226, 21.3 µM (inactive); in the assay on OVCAR-4, 21.8 µM (inactive). Besides, the GI50 with 786-0 was 26.1 µM (inactive); with OVCAR-8 it was 29.2 µM (inactive); in the assay on COLO 205 it was 23.1 µM (inactive); in the assay on SNB-19, 34.1 µM (inactive); with UACC-62, 15.7 µM (inactive); in the assay with CCRF-CEM, 25.6 µM (inactive). Besides, the GI50 was 38.4 µM (inactive) in the assay with TK-10, 25.3 µM (inactive) with A549 and 20.2 µM (inactive) with SF-295.
As to `CC1CN(C(=O)CN2CCC(CCCCN(C)C)CC2)c2ccccc2NC1=O` (stereo not drawn), the GI50 in the assay on OVCAR-3, with SK-OV-3, in the assay on LOX IMVI, in the assay with HL-60, with HOP-92 and with SF-268 was > 100 µM (inactive) in each case. The GI50 in the assay with RPMI-8226, in the assay with OVCAR-4, with 786-0, in the assay on COLO 205, in the assay on SNB-19 and in the assay with UACC-62 was > 100 µM (inactive) in each case. For the same compound, the GI50 in the assay with CCRF-CEM, with A549 and in the assay on SF-295 was > 100 µM (inactive) throughout.
As to `Cc1cccc(NC(=O)/C=C/c2ccc(N(CCC#N)CCC#N)cc2C)c1`, the GI50 is > 100 µM (inactive) with OVCAR-3; > 100 µM (inactive) in the assay on SK-OV-3; 43.7 µM (inactive) in the assay on LOX IMVI; 21.5 µM (inactive) in the assay with HL-60; > 100 µM (inactive) in the assay with HOP-92; 81.5 µM (inactive) in the assay with SF-268. The GI50 in the assay with RPMI-8226, in the assay on OVCAR-4, in the assay on 786-0, in the assay on OVCAR-8, in the assay with COLO 205 and in the assay on SNB-19 was > 100 µM (inactive) each time. The GI50 in the assay with UACC-62 was 28 µM (inactive); in the assay with CCRF-CEM it was 33 µM (inactive); with TK-10, > 100 µM (inactive); in the assay with A549, > 100 µM (inactive); in the assay on SF-295, > 100 µM (inactive).
Turning to `COc1ccc(C2=Nc3ccccc3SC(C)C2)cc1OC` (stereo not drawn), the GI50 with OVCAR-3 was 16.6 µM (inactive); in the assay with SK-OV-3, 20.3 µM (inactive); in the assay with LOX IMVI, 17.9 µM (inactive); in the assay on HL-60, 22.4 µM (inactive); in the assay on HOP-92, 38.1 µM (inactive); with SF-268 it was 22 µM (inactive). The GI50 was 13.8 µM (inactive) in the assay on RPMI-8226; 22.1 µM (inactive) in the assay on OVCAR-4; 16.3 µM (inactive) in the assay with 786-0; 22.8 µM (inactive) with OVCAR-8; 20.4 µM (inactive) in the assay with COLO 205; 20.2 µM (inactive) in the assay with SNB-19. Moreover, the GI50 was 17.8 µM (inactive) with UACC-62, 31.8 µM (inactive) with CCRF-CEM, 29.8 µM (inactive) with TK-10 and 21 µM (inactive) in the assay on SF-295.
Take `CCOC(=O)CCC(NC(=O)OCc1ccccc1)C(=O)NC(CCC(=O)OCC)C(=O)NN` (stereo not drawn) (Cbz-Glu(OEt)-Glu(OEt)-NHNH2; configuration not given here): the GI50 with HL-60, in the assay on HOP-92, in the assay with RPMI-8226, in the assay on 786-0, in the assay on OVCAR-8 and in the assay with COLO 205 was > 100 µM (inactive) each time. For the same compound, the GI50 with SNB-19, with UACC-62, with TK-10 and in the assay with A549 was > 100 µM (inactive) each time.
Take `CCOc1ccc(NC(=O)/C(=C\c2ccc(C)cc2)C(C)=O)cc1`: the GI50 was > 100 µM (inactive) in the assay on OVCAR-3; > 100 µM (inactive) in the assay with SK-OV-3; > 100 µM (inactive) in the assay with LOX IMVI; < 0.01 µM (active) with HL-60; > 100 µM (inactive) in the assay with HOP-92; > 100 µM (inactive) in the assay on SF-268. Further, the GI50 with RPMI-8226, with OVCAR-4, in the assay on 786-0, with OVCAR-8, with COLO 205 and in the assay on SNB-19 was > 100 µM (inactive) each time. Moreover, the GI50 with UACC-62, with CCRF-CEM, with TK-10, in the assay on A549 and in the assay with SF-295 was > 100 µM (inactive) each time.

The values are drawn from ChEMBL document CHEMBL1201862, “PubChem BioAssay data set” (2004).
